Values of other authors, collected in EP1197217A1, “Use of sodium nitroprussiate in obstetrics and gynaecology” (Ibsa Institut Biochimique S.A., priority 2000, dated 2002).
Values joined by “and” are separate entries in the source; they are usually repeats but may differ in a detail not shown here. Identical values can stand only once.

System: cervix
Conditions: in vivo

O=[N+]([O-])O[C@@H]1CO[C@H]2[C@@H]1OC[C@@H]2O [isosorbide mononitrate]
cumulative median force necessary to dilate the cervix to 8 mm: 40 newtons and 36 newtons
